According to ChEMBL document CHEMBL4359905, “Discovery, structural insight, and bioactivities of BY27 as a selective inhibitor of the second bromodomains of BET proteins” (Eur J Med Chem, 2019):
Blank lines part the entries; values can stand above or below the compound they belong to.

Experiments:
[1] = Toxicity in BALB/c nu/nu mouse xenografted with human MV4-11 cells assessed as decrease in body weight at 60 mg/kg, po via gavage once daily for 6 days and measured every 2 to 3 days relative to control; assay type: organism-based; design: scale not given: the % may be the effect or the level left; conditions: in vivo
MV4-11 [2] = experiment: Antiproliferative activity against human MV4-11 cells assessed as cell growth inhibition after 4 days by CCK8 assay; assay type: functional, cell-based; conditions: MV4-11, 96 h
MV4-11 [3] = experiment: Antitumour activity against human MV4-11 cells xenografted in BALB/c nu/nu mouse assessed as downregulation of c-Myc expression level in tumor tissue at 150 mg/kg, po administered via gavage as a single dose measured after 24 hrs by western blot analysis; assay type: functional; conditions: MV4-11, po
[4] = target: T1, Bromodomain-containing protein 2 (Homo sapiens, UniProt P25440); experiment: Binding affinity to human recombinant BRD2 BD2 (349 to 460 residues) by fluorescence polarization assay
Target sequence in this assay (P25440 whole entry, the tested form may be a part): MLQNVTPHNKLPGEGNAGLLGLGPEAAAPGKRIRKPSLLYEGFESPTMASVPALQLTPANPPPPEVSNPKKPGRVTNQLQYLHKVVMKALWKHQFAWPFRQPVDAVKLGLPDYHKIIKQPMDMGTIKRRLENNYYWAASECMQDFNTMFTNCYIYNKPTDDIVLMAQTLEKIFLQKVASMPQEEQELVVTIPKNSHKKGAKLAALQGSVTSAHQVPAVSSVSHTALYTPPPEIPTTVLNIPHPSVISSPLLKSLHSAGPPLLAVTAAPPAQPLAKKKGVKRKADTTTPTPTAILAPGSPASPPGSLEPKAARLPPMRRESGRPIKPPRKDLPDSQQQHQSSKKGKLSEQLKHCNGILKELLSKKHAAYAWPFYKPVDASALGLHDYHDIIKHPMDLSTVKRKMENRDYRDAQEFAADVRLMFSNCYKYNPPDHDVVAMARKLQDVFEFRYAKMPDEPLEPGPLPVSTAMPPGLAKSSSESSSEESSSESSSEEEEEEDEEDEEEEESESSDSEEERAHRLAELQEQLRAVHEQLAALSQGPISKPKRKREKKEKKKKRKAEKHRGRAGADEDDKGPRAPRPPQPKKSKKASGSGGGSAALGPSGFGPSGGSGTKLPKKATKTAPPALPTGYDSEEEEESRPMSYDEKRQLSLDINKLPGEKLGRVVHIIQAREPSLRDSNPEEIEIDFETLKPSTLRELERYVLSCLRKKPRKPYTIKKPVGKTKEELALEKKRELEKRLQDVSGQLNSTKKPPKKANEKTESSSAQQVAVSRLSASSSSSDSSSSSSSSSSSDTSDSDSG

[5] = target: T2, Bromodomain-containing protein 4 (Homo sapiens, UniProt O60885); experiment: Binding affinity to human recombinant BRD4 BD1 (44 to 168 residues) by fluorescence polarization assay
[6] = AUC (0 to t) in ICR mouse at 5 mg/kg, iv measured upto 24 hrs by LC-MS/MS analysis; assay type: ADME, organism-based; design: dose 5 mg/kg, time < 24 hr, route intravenous; conditions: in vivo
[7] = Cmax in ICR mouse at 15 mg/kg, po measured upto 24 hrs by LC-MS/MS analysis; assay type: ADME, organism-based; design: dose 15 mg/kg, route oral; conditions: in vivo
MV4-11 [8] = experiment: Upregulation of p21 mRNA expression in human MV4-11 cells after 24 hrs by qRT-PCR analysis; assay type: functional, cell-based
[9] = AUC (0 to t) in ICR mouse at 15 mg/kg, po measured upto 24 hrs by LC-MS/MS analysis; assay type: ADME, organism-based; design: time < 24 hr, dose 15 mg/kg, route oral; conditions: in vivo
MV4-11 [10] = experiment: Downregulation of cMyc mRNA expression in human MV4-11 cells after 24 hrs by qRT-PCR analysis; assay type: functional, cell-based
[11] = target: T2, Bromodomain-containing protein 4; experiment: Binding affinity to human partial length BRD4 BD1 isoform long (N44 to E168 residues) expressed in bacterial expression system by bromoscan assay
[12] = target: T3, Bromodomain-containing protein 3 (Homo sapiens, UniProt Q15059); experiment: Binding affinity to human recombinant BRD3 BD2 (306 to 417 residues) by fluorescence polarization assay
Target sequence in this assay (Q15059 whole entry, the tested form may be a part): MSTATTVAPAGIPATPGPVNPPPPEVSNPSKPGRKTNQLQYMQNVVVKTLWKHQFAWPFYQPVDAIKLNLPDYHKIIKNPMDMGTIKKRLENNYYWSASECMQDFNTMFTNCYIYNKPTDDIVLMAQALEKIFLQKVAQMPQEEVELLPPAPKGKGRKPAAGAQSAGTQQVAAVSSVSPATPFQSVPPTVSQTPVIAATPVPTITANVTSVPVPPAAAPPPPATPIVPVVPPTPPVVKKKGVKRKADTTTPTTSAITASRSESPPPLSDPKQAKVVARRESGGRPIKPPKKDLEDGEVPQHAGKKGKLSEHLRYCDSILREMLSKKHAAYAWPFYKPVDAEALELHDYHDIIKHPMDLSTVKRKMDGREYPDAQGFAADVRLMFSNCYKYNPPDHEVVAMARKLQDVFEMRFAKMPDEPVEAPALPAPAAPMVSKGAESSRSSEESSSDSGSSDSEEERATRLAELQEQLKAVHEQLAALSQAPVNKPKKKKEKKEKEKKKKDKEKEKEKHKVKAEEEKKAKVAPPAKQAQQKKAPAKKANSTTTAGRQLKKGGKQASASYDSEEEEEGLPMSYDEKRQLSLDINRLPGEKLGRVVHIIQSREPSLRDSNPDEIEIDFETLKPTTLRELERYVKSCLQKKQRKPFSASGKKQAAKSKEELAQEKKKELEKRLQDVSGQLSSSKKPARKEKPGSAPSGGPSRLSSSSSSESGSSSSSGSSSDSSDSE

[13] = target: T3, Bromodomain-containing protein 3; experiment: Binding affinity to human partial length BRD3 BD2 (G306 to P416 residues) expressed in bacterial expression system by bromoscan assay
Target sequence in this assay (Q15059 whole entry, the tested form may be a part): as above

MV4-11 [14] = experiment: Antitumour activity against human MV4-11 cells xenografted in BALB/c nu/nu mouse assessed as tumour growth inhibition at 100 mg/kg, po via gavage administered once daily for 21 days and measured every 2 to 3 days by vernier caliper method relative to control; assay type: functional; conditions: MV4-11, po, read-out: GI
[15] = target: T3, Bromodomain-containing protein 3; experiment: Binding affinity to human recombinant BRD3 BD1 (24 to 144 residues) by fluorescence polarization assay
Target sequence in this assay (Q15059 whole entry, the tested form may be a part): as above

[16] = target: T2, Bromodomain-containing protein 4; experiment: Binding affinity to human partial length BRD4 BD2 isoform long (K333 to E460 residues) expressed in bacterial expression system by bromoscan assay
[17] = target: T2, Bromodomain-containing protein 4; experiment: Binding affinity to human recombinant BRD4 BD2 (333 to 460 residues) by fluorescence polarization assay
MV4-11 [18] = experiment: Downregulation of p21 expression level in tumor tissue in BALB/c nu/nu mouse xenografted with human MV4-11 cells at 150 mg/kg, po administered via gavage as a single dose measured after 24 hrs by western blot analysis; assay type: functional; conditions: MV4-11, po
[19] = Oral bioavailability in ICR mouse at 15 mg/kg measured upto 24 hrs by LC-MS/MS analysis; assay type: ADME, organism-based; conditions: in vivo
[20] = Volume of distribution at steady state in ICR mouse at 5 mg/kg, iv measured upto 24 hrs by LC-MS/MS analysis; assay type: ADME, organism-based; conditions: in vivo, read-out: Vdss
[21] = target: T4, Bromodomain testis-specific protein (Homo sapiens, UniProt Q58F21); experiment: Selectivity ratio Kd for human partial length BRDT bromodomain 1 isoform b (N21 to E137 residues) expressed in bacterial expression system to Kd for human partial length BRDT bromodomain 2 isoform b (K250 to E382 residues) expressed in bacterial expression system
[22] = target: T4, Bromodomain testis-specific protein; experiment: Binding affinity to human partial length BRDT bromodomain 2 isoform b (K250 to E382 residues) expressed in bacterial expression system by bromoscan assay
MV4-11 [23] = experiment: Antitumour activity against human MV4-11 cells xenografted in BALB/c nu/nu mouse assessed as downregulation of c-Myc expression level in tumor tissue at 150 mg/kg, po administered via gavage as a single dose measured after 6 hrs by western blot analysis; assay type: functional; conditions: MV4-11, po
MV4-11 [24] = experiment: Antitumour activity against human MV4-11 cells xenografted in BALB/c nu/nu mouse assessed as tumour growth inhibition administered via oral gavage once daily for 21 days and measured every 2 to 3 days by vernier caliper method; assay type: functional, cell-based
[25] = target: T2, Bromodomain-containing protein 4; experiment: Selectivity ratio of Kd for human partial length BRD4 BD1 isoform long (N44 to E168 residues) expressed in bacterial expression system to Kd for human partial length BRD4 BD2 isoform long (K333 to E460 residues) expressed in bacterial expression system
MV4-11 [26] = experiment: Antitumour activity against human MV4-11 cells xenografted in BALB/c nu/nu mouse assessed as tumour growth inhibition at 150 mg/kg, po via gavage administered once daily for 21 days and measured every 2 to 3 days by vernier caliper method relative to control; assay type: functional; conditions: MV4-11, po, read-out: GI
MV4-11 [27] = experiment: Antitumour activity against human MV4-11 cells xenografted in BALB/c nu/nu mouse assessed as upregulation of p21 expression level in tumor tissue at 150 mg/kg, po administered via gavage as a single dose measured after 6 hrs by western blot analysis; assay type: functional
[28] = target: T4, Bromodomain testis-specific protein; experiment: Binding affinity to human partial length BRDT bromodomain 1 isoform b (N21 to E137 residues) expressed in bacterial expression system by bromoscan assay
[29] = target: T1, Bromodomain-containing protein 2; experiment: Binding affinity to human recombinant BRD2 BD1 (72 to 205 residues) by fluorescence polarization assay
Target sequence in this assay (P25440 whole entry, the tested form may be a part): as the sequence (P25440 whole entry, the tested form may be a part) above

[30] = target: T1, Bromodomain-containing protein 2; experiment: Selectivity ratio of Kd for human partial length BRD2 BD1 isoform 1 (K71 to N194 residues) expressed in bacterial expression system to Kd for human partial length BRD2 BD2 isoform 1 (E348 to D455 residues) expressed in bacterial expression system
Target sequence in this assay (P25440 whole entry, looked up, the tested form may be a part): as the sequence (P25440 whole entry, the tested form may be a part) above

[31] = Clearance in ICR mouse at 5 mg/kg, iv measured upto 24 hrs by LC-MS/MS analysis; assay type: ADME, organism-based; conditions: in vivo
MM1.S = experiment: Antiproliferative activity against human MM1S cells assessed as cell growth inhibition after 4 days by CCK8 assay; assay type: functional, cell-based; conditions: 96 h
[32] = target: T1, Bromodomain-containing protein 2; experiment: Binding affinity to human partial length BRD2 BD2 isoform 1 (E348 to D455 residues) expressed in bacterial expression system by bromoscan assay
Target sequence in this assay (P25440 whole entry, the tested form may be a part): as above

[33] = Half-life in ICR mouse at 5 mg/kg, iv measured upto 24 hrs by LC-MS/MS analysis; assay type: ADME, organism-based; conditions: in vivo
[34] = target: T3, Bromodomain-containing protein 3; experiment: Selectivity index, ratio of Ki for human recombinant BRD3 BD1 (24 to 144 residues) to Ki for human recombinant BRD3 BD2 (306 to 417 residues)
Target sequence in this assay (Q15059 2-726 limits assumed): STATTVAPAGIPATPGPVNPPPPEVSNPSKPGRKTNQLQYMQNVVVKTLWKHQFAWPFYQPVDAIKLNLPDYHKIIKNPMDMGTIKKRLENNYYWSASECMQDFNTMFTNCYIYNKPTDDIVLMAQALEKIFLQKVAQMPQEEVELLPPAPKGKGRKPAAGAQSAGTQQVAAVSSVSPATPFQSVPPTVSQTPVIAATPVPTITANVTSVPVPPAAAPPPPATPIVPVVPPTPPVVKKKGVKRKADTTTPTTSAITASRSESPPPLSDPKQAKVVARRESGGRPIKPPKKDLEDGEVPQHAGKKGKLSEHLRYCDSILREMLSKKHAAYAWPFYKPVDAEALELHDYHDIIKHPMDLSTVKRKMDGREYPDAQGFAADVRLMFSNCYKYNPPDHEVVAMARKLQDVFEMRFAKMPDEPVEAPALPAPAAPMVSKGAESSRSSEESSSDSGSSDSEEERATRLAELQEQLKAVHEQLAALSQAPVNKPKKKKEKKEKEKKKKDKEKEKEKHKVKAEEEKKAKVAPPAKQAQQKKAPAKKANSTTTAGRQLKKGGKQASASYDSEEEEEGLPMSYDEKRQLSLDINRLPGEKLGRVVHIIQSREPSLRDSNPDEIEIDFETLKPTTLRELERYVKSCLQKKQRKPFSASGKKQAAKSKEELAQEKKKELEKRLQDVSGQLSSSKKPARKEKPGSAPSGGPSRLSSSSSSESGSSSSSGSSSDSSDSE

HepG2 [35] = experiment: Downregulation of […] in human HepG2 cells after 4 hrs by qRT-PCR analysis; assay type: functional, cell-based
[36] = Toxicity in BALB/c nu/nu mouse xenografted with human MV4-11 cells assessed as decrease in body weight at 150 mg/kg, po via gavage once daily for 21 days and measured every 2 to 3 days relative to control; assay type: organism-based; design: scale not given: the % may be the effect or the level left; conditions: in vivo
MV4-11 [37] = experiment: Decrease in c-Myc protein expression in human MV4-11 cells incubated for 24 hrs by western blot analysis; assay type: functional, cell-based
[38] = target: T3, Bromodomain-containing protein 3; experiment: Binding affinity to human partial length BRD3 BD1 (P24 to E144 residues) expressed in bacterial expression system by bromoscan assay
Target sequence in this assay (Q15059 whole entry, the tested form may be a part): as the sequence (Q15059 whole entry, the tested form may be a part) above

MV4-11 [39] = experiment: Increase in p21 protein expression in human MV4-11 cells incubated for 24 hrs by western blot analysis; assay type: functional, cell-based
[40] = Cmax in ICR mouse at 5 mg/kg, iv measured upto 24 hrs by LC-MS/MS analysis; assay type: ADME, organism-based; design: dose 5 mg/kg, route intravenous; conditions: in vivo
[41] = target: T1, Bromodomain-containing protein 2; experiment: Binding affinity to human partial length BRD2 BD1 isoform 1 (K71 to N194 residues) expressed in bacterial expression system by bromoscan assay
Target sequence in this assay (P25440 whole entry, the tested form may be a part): as the sequence (P25440 whole entry, the tested form may be a part) above

HepG2 [42] = experiment: Downregulation of G6PC in human HepG2 cells after 4 hrs by qRT-PCR analysis; assay type: functional, cell-based
MV4-11 [43] = experiment: Antitumour activity against human MV4-11 cells xenografted in BALB/c nu/nu mouse assessed as tumour growth inhibition at 60 mg/kg, po via gavage administered once daily for 21 days and measured every 2 to 3 days by vernier caliper method relative to control; assay type: functional; conditions: MV4-11, po, read-out: GI
HepG2 [44] = experiment: Downregulation of ARID5B in human HepG2 cells after 4 hrs by qRT-PCR analysis; assay type: functional, cell-based
[45] = target: T3, Bromodomain-containing protein 3; experiment: Selectivity ratio of Kd for human partial length BRD3 BD1 (P24 to E144 residues) expressed in bacterial expression system to Kd for human partial length BRD3 BD2 (G306 to P416 residues) expressed in bacterial expression system
Target sequence in this assay (Q15059 2-726 limits assumed): as the sequence (Q15059 2-726 limits assumed) above

[46] = Half-life in ICR mouse at 15 mg/kg, po measured upto 24 hrs by LC-MS/MS analysis; assay type: ADME, organism-based; conditions: in vivo

Structure (SMILES): CCNC(=O)C[C@@H]1N=C(c2ccc(Cl)cc2)c2cc(OC)ccc2-n2c(C)nnc21 [MOLIBRESIB]
Activity [1]: 11%

IC50 (MV4-11 [2]): 0.027 µM | Ki [4]: 0.0031 µM | Ki [5]: 0.08 µM | AUC(0-t) at 24 h [6]: 3.32 µg·h/mL | Cmax [7]: 2.21 µg/mL | AUC(0-t) at 24 h [9]: 5.89 µg·h/mL | Kd [11]: 0.026 µM | Ki [12]: 0.0053 µM | Kd [13]: 0.0026 µM | Ki [15]: 0.0779 µM | Kd [16]: 0.0035 µM | Ki [17]: 0.0073 µM | bioavailability [19]: 59.1% | Vd [20]: 0.94 L/kg | Selectivity ratio [21]: 21 | Kd [22]: 0.003 µM | Selectivity ratio [25]: 7 | Kd [28]: 0.064 µM | Ki [29]: 0.0955 µM | Selectivity ratio [30]: 38 | clearance [31]: 1.5 L/h/kg | IC50 (MM1.S): 0.0167 µM | Kd [32]: 0.0012 µM | half-life [33]: 34.8 min | Ratio Ki [34]: 15 | Kd [38]: 0.012 µM | Cmax [40]: 5.42 µg/mL | Kd [41]: 0.045 µM | Selectivity ratio [45]: 5 | half-life [46]: 57 min
Structure (SMILES): Cc1nnc2n1-c1ccc(-c3cnn(C)c3)cc1[C@H](Nc1ccc(Cl)cc1)CC2
inhibition in vivo at 150 mg/kg (MV4-11 [3]): 43% | Activity (MV4-11 [8]): Dose-dependent effect | inhibition (MV4-11 [10]): Dose-dependent effect | inhibition in vivo at 100 mg/kg (MV4-11 [14]): 58% | inhibition in vivo at 150 mg/kg (MV4-11 [18]): 18% | inhibition in vivo at 150 mg/kg (MV4-11 [23]): 30% | inhibition (MV4-11 [24]): Dose-dependent effect | inhibition in vivo at 150 mg/kg (MV4-11 [26]): 67% | Activity (MV4-11 [27]): 46% | inhibition (HepG2 [35]): Dose-dependent effect | Activity [36]: 7% | inhibition (MV4-11 [37]): Dose-dependent effect | Activity (MV4-11 [39]): Dose-dependent effect | inhibition (HepG2 [42]): Dose-dependent effect | inhibition in vivo at 60 mg/kg (MV4-11 [43]): 47% | inhibition (HepG2 [44]): Dose-dependent effect
